Usually Ki stands for a dissociation constant, usually derived from enzyme kinetics or from competition with a known ligand.

Assay [1] deals with human thymidylate synthase (Homo sapiens, UniProt P04818). The assay can be described thus: spectrophotometric assay of human thymidylate synthase activity. Type of assay: biochemical. To be noted: for Ki: Table 2, kinetic parameters of TS in presence of selected compounds. Here is the method:
A spectrophotometric assay is used to test compounds for their inhibitory activity against human thymidylate synthase activity. This assay is a modification of the assay of Wahba, A. J., and Friedkin, M. (1961). Direct spectrophotometric evidence for the oxidation of tetrahydrofolate during the enzymatic synthesis of thymidylate (J. Biol. Chem. 236, PC11-12).
In the spectrophotometric assay, human thymidylate synthase is preincubated with deoxyuridine monophosphate (and inhibitors) in 96-well plates for 0-5 minutes at room temperature and fresh 5,10-methylene tetrahydrofolate (THF) is added to the mixture immediately before the reaction to yield a volume of 100 μl. 5,10-methylene tetrahydrofolate is prepared fresh prior to every experiment by dissolving THF in 0.26 M formaldehyde, 80 mM dithiothreitol, and 50 mM Tris HCI (pH 6.8/7.0). X-ray crystallography is then utilized to identify any binding site in human thymidylate synthase for an inhibitor and also to characterize its mechanism of action.
The 40 highest scoring compounds in the above-mentioned screening assay were obtained and tested for their abilities to inhibit the biochemical activity of human thymidylate synthase. Four compounds were inhibitory and preliminary studies show the enzyme mechanism to be non-competitive (i.e. through modulating or interfering with association among human thymidylate synthase monomers).

The subject of the next assay is HT29. The assay is described as follows: cell proliferation experiments, combination with 5-FU. Type of assay: cell-based, human. To be noted: combination of CNX treatment with 5-FU versus 5FU alone. From the text: (§1) The combination of certain compounds (e.g., CNX) with certain anti-cancer compounds (e.g., 5-FU) can produce synergistic anticancer effects.
Another assay concerns HeLa. Described as above. Type of assay: cell-based, human. To be noted: combination of CNX treatment with 5-FU versus 5FU alone.
Excerpt: as §1

Sequence of human thymidylate synthase (P04818 whole entry): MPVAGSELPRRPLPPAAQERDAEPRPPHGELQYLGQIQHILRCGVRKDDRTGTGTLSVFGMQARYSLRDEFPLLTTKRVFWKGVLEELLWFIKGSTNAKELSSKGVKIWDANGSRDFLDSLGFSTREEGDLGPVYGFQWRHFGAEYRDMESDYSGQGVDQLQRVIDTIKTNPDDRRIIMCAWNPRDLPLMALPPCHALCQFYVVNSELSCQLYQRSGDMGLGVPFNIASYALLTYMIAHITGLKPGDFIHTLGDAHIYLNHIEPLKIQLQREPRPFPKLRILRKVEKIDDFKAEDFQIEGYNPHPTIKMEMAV

With `O=C(O)C(S)C(S)C(=O)O` (stereo not drawn) [NSC16867, 2,3-Dimercaptosuccinic acid], the Ki in assay [1] was 45.5 µM.

For the molecule `CCN(CC)S(=O)(=O)c1ccc(C(=O)O)cc1` [NSC49467, P-(Diethylsulfamoyl)benzoic acid], the Ki in assay [1] stood at 177 µM. The same measure, in the same setting: then `O=C(O)Cn1cc(I)c(=O)c(I)c1` [NSC60718, (3,5-diiodo-4-oxo-1(4H)-pyridinyl)acetic acid], with 29.8 µM. Turning to `CCn1nc(C(=O)O)c(=O)c2cc3c(cc21)OCO3` [NSC304467, 1-Ethyl-4-oxo-1,4-dihydro[1,3]dioxolo[4,5-g]cinnoline-3-carboxylic acid], in assay [1], the “enzyme mechanism of TS inhibition” value is listed as “non-competitive”, the “inhibiting TS activity (in words)” value was “potent” and the Ki came to 0.32 µM. Besides, the “inhibitory effect on cell proliferation” value with HT29 is “greater inhibitory effects than 5FU alone”. Besides, the “inhibitory effect on cell proliferation” value in the assay on HeLa is listed as “greater inhibitory effects than 5FU alone”.

With `O=c1[nH]cc(F)c(=O)[nH]1` [5-FU, 5-fluorouracil, reference compound], the Ki in assay [1] amounted to 56.7 µM. Same read-out and setting: under `CC(=O)Nc1c(I)cc(I)c(C(=O)O)c1I` [NSC141235, 3-(acetylamino)-2,4,6-triiodobenzoic acid.6-(methylamino)hexane-1,2,3,4,5-pentol] stands 5.4 µM; under `CC(=O)NC(CS)C(=O)O` (stereo not drawn) [NSC111180, 2-acetamido-3-sulfanylpropanoic acid], 602 µM.

Turning to `O=P(O)(O)OCC(O)CO` (stereo not drawn) [NSC9231, 2,3-Dihydroxypropyl dihydrogen phosphate], the Ki in assay [1] stood at 2.12 µM.
